Measurements taken from patent publication US11384055B2 (BIOMARIN PHARMACEUTICAL INC., priority 2017, dated 2022).

molecular target: T1, Human GO (Homo sapiens, UniProt Q9UJM8); experiment: GO enzymatic assay (coupled fluorescence/HRP assay, glycolate substrate); assay type: biochemical; conditions: not given
T1 construct: purchased Novus Biologicals NBP1-72412
T1 sequence (Q9UJM8 1-370): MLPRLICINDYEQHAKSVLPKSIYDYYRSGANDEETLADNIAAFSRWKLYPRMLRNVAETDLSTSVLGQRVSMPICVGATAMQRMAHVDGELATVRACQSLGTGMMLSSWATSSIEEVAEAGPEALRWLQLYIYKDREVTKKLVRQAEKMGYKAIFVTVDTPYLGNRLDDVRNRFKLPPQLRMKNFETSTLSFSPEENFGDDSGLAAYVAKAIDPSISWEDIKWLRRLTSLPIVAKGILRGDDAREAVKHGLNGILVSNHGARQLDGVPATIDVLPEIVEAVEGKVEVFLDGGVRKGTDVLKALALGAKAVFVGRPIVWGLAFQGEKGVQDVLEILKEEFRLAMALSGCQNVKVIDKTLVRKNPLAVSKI
How it was run: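 Human GO incubated with glycolate substrate in 50 mM potassium phosphate, pH 7, with varying inhibitor concentrations. Activity read by coupled HRP fluorescence. IC50 taken from variable-slope sigmoidal dose-response fits of percent inhibition relative to DMSO control.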

IC50 | SMILES
< 100 nM | O=C(O)c1[nH]nnc1Oc1ccc(-c2ccc(Cl)c(Cl)c2)cc1 [Compound 165, 4-((3′,4′-dichloro-[1,1′-biphenyl]-4-yl)oxy)-1H-1,2,3-triazole-5-carboxylic acid 2,2,2-trifluoroacetate]

same assay, conditions: Table 1; read-out: Range (range of IC50 values calculated from the enzymatic assays)

IC50 | SMILES
1000 to 10000 nM | O=C(O)c1[nH]nnc1-c1ccc(OC(F)(F)F)cn1 [Compound 145, 4-(5-(trifluoromethoxy)pyridin-2-yl)-1H-1,2,3-triazole-5-carboxylic acid 2,2,2-trifluoroacetate]
1000 to 10000 nM | O=C(O)c1[nH]nnc1C(=O)N1CCC(c2ccc(Cl)cc2)C1 (centres unmarked) [Compound 146, 4-(3-(4-chlorophenyl)pyrrolidine-1-carbonyl)-1H-1,2,3-triazole-5-carboxylic acid]
1000 to 10000 nM | O=C(O)c1[nH]nnc1C(=O)N1Cc2ccc(Cl)cc2C1 [Compound 147, 4-(5-chloroisoindoline-2-carbonyl)-1H-1,2,3-triazole-5-carboxylic acid]
< 100 nM | O=C(O)c1[nH]nnc1C(=O)N1CCc2cc(Cl)ccc21 [Compound 148, 4-(5-chloroindoline-1-carbonyl)-1H-1,2,3-triazole-5-carboxylic acid]
1000 to 10000 nM | O=C(O)c1[nH]nnc1C(=O)N1CCC(c2ccc(Cl)cc2Cl)C1 (centres unmarked) [Compound 149, 4-(3-(2,4-dichlorophenyl)pyrrolidine-1-carbonyl)-1H-1,2,3-triazole-5-carboxylic acid]
1000 to 10000 nM | O=C(O)c1[nH]nnc1C(=O)N1CCC(c2ccc(Cl)c(Cl)c2)C1 (centres unmarked) [Compound 150, 4-(3-(3,4-dichlorophenyl)pyrrolidine-1-carbonyl)-1H-1,2,3-triazole-5-carboxylic acid]
< 100 nM | O=C(O)c1[nH]nnc1SCc1ccc(Cl)c2ccccc12 [Compound 152, 4-(((4-chloronaphthalen-1-yl)methyl)thio)-1H-1,2,3-triazole-5-carboxylic acid 2,2,2-trifluoroacetate]
100 to 1000 nM | O=C(O)c1[nH]nnc1Nc1cc(Cl)cc(Cl)c1 [Compound 153, 4-((3,5-dichlorophenyl)amino)-1H-1,2,3-triazole-5-carboxylic acid]
1000 to 10000 nM | O=C(O)c1[nH]nnc1Nc1cc(Cl)ccc1Cl [Compound 154, 4-((2,5-dichlorophenyl)amino)-1H-1,2,3-triazole-5-carboxylic acid 2,2,2-trifluoroacetate]
< 100 nM | O=C(O)c1[nH]nnc1Nc1ccc(-c2ccc(OC(F)(F)F)c(Cl)c2)cc1 [Compound 155, 4-((3′-chloro-4′-(trifluoromethoxy)-[1,1′-biphenyl]-4-yl)amino)-1H-1,2,3-triazole-5-carboxylic acid]
< 100 nM | O=C(O)c1[nH]nnc1Oc1ccc(-c2ccc(OC(F)(F)F)c(Cl)c2)cc1 [Compound 156, 4-((3′-chloro-4′-(trifluoromethoxy)-[1,1′-biphenyl]-4-yl)oxy)-1H-1,2,3-triazole-5-carboxylic acid]
< 100 nM | O=C(O)c1[nH]nnc1Oc1ccc(-c2cccc(C(=O)N3CCCCC3)c2)cc1 [Compound 157, 4-((3′-(piperidine-1-carbonyl)-[1,1′-biphenyl]-4-yl)oxy)-1H-1,2,3-triazole-5-carboxylic acid 2,2,2-trifluoroacetate]
< 100 nM | O=C(O)c1[nH]nnc1COc1ccc2cc(Cl)ccc2c1 [Compound 158, 4-(((6-chloronaphthalen-2-yl)oxy)methyl)-1H-1,2,3-triazole-5-carboxylic acid 2,2,2-trifluoroacetate]
100 to 1000 nM | O=C(O)c1[nH]nnc1Oc1ccc(-c2cccc(CN3CCCCC3)c2)cc1 [Compound 160, 4-((3′-(piperidin-1-ylmethyl)-[1,1′-biphenyl]-4-yl)oxy)-1H-1,2,3-triazole-5-carboxylic acid 2,2,2-trifluoroacetate]
< 100 nM | O=C(O)c1[nH]nnc1Oc1ccc(-c2ccc(C(F)(F)F)cc2)cc1 [Compound 161, 4-((4′-(trifluoromethyl)-[1,1′-biphenyl]-4-yl)oxy)-1H-1,2,3-triazole-5-carboxylic acid]
< 100 nM | O=C(O)c1[nH]nnc1Oc1ccc(-c2cccc(OC3CCCC3)c2)cc1 [Compound 162, 4-((3′-(cyclopentyloxy)-[1,1′-biphenyl]-4-yl)oxy)-1H-1,2,3-triazole-5-carboxylic acid]
< 100 nM | O=C(O)c1[nH]nnc1Oc1ccc(-c2ccc(Cl)c(OC(F)(F)F)c2)cc1 [Compound 163, 4-((4′-chloro-3′-(trifluoromethoxy)-[1,1′-biphenyl]-4-yl)oxy)-1H-1,2,3-triazole-5-carboxylic acid]
< 100 nM | O=C(O)c1[nH]nnc1Sc1ccc(-c2cccc(N3CCCCC3)c2)cc1 [Compound 164, 4-((3′-(piperidin-1-yl)-[1,1′-biphenyl]-4-yl)thio)-1H-1,2,3-triazole-5-carboxylic acid 2,2,2-trifluoroacetate]
< 100 nM | O=C(O)c1[nH]nnc1C(F)(F)c1ccc(Cl)c(Cl)c1 [Compound 166, 4-((3,4-dichlorophenyl)difluoromethyl)-1H-1,2,3-triazole-5-carboxylic acid]
< 100 nM | O=C(O)c1[nH]nnc1OC1CCC(F)(F)CC1 [Compound 167, 4-((4,4-difluorocyclohexyl)oxy)-1H-1,2,3-triazole-5-carboxylic acid 2,2,2-trifluoroacetate]
< 100 nM | O=C(O)c1[nH]nnc1OC1CC2CCC1C2 (centres unmarked) [Compound 168, 4-(bicyclo[2.2.1]heptan-2-yloxy)-1H-1,2,3-triazole-5-carboxylic acid]

same assay, conditions: Table 2; read-out: Range (range of IC50 values calculated from the enzymatic assays)

IC50 | SMILES
< 100 nM | O=C(O)c1[nH]nnc1Sc1ccc(-c2ccc(N3CCCCC3)cc2)cc1 [Compound 169, 4-((4′-(piperidin-1-yl)-[1,1′-biphenyl]-4-yl)thio)-1H-1,2,3 triazole-5-carboxylic acid 2,2,2-trifluoroacetate]
< 100 nM | O=C(O)c1[nH]nnc1Sc1ccc(-c2cccc(OCC3CC3)c2)cc1 [Compound 170, 4-((3′-(cyclopropylmethoxy)-[1,1′-biphenyl]-4-yl)thio)-1H-1,2,3-triazole-5-carboxylic acid 2,2,2-trifluoroacetate]
< 100 nM | O=C(O)c1[nH]nnc1CSc1ccc2cc(Cl)ccc2c1 [Compound 171, 4-(((6-chloronaphthalen-2-yl)thio)methyl)-1H-1,2,3-triazole-5-carboxylic acid 2,2,2-trifluoroacetate]
< 100 nM | O=C(O)c1[nH]nnc1SC1CCc2cc(F)c(F)cc2C1 (centres unmarked) [Compound 172, 4-((6,7-difluoro-1,2,3,4-tetrahydronaphthalen-2-yl)thio)-1H-1,2,3-triazole-5-carboxylic acid]
< 100 nM | O=C(O)c1[nH]nnc1SC1Cc2cc(F)c(F)cc2C1 [Compound 173, 4-((5,6-difluoro-2,3-dihydro-1H-inden-2-yl)thio)-1H-1,2,3-triazole-5-carboxylic acid]
< 100 nM | O=C(O)c1[nH]nnc1SCc1ccc2cc(Cl)ccc2c1 [Compound 174, 4-(((6-chloronaphthalen-2-yl)methyl)thio)-1H-1,2,3-triazole-5-carboxylic acid 2,2,2-trifluoroacetate]
< 100 nM | CN1CCCc2cc(-c3ccc(Sc4nn[nH]c4C(=O)O)cc3)ccc21 [Compound 175, 4-((4-(1-methyl-1,2,3,4-tetrahydroquinolin-6-yl)phenyl)thio)-1H-1,2,3-triazole-5-carboxylic acid 2,2,2-trifluoroacetate]
< 100 nM | O=C(O)c1[nH]nnc1SCc1ccc(Cl)c(Cl)c1 [Compound 176, 4-((3,4-dichlorobenzyl)thio)-1H-1,2,3-triazole-5-carboxylic acid]
< 100 nM | O=C(O)c1[nH]nnc1SCc1ccc(-c2ccc(OC(F)(F)F)cc2)cc1 [Compound 177]
< 100 nM | O=C(O)c1[nH]nnc1CNc1ccc2cc(Cl)ccc2c1 [Compound 178, 4-(((6-chloronaphthalen-2-yl)amino)methyl)-1H-1,2,3-triazole-5-carboxylic acid 2,2,2-trifluoroacetate]
< 100 nM | CN(Cc1nn[nH]c1C(=O)O)c1ccc(Cl)c(Cl)c1 [Compound 179, 4-(((3,4-dichlorophenyl)(methyl)amino)methyl)-1H-1,2,3-triazole-5-carboxylic acid 2,2,2-trifluoroacetate]
< 100 nM | CN(Cc1nn[nH]c1C(=O)O)c1ccc2cc(Cl)ccc2c1 [Compound 180, 4-(((6-chloronaphthalen-2-yl)(methyl)amino)methyl)-1H-1,2,3-triazole-5-carboxylic acid 2,2,2-trifluoroacetate]
< 100 nM | O=C(O)c1[nH]nnc1Nc1ccc(-c2ccc(Cl)cc2)c(Cl)c1 [Compound 181, 4-((2,4′-dichloro-[1,1′-biphenyl]-4-yl)amino)-1H-1,2,3-triazole-5-carboxylic acid]
100 to 1000 nM | O=C(O)c1[nH]nnc1NCc1ccc2cc(Cl)ccc2c1 [Compound 182, 4-(((6-chloronaphthalen-2-yl)methyl)amino)-1H-1,2,3-triazole-5-carboxylic acid]
< 100 nM | O=C(O)c1[nH]nnc1Nc1ccc(-c2ccc(C(F)(F)F)cc2)cc1 [Compound 183, 4-((4′-(trifluoromethyl)-[1,1′-biphenyl]-4-yl)amino)-1H-1,2,3-triazole-5-carboxylic acid]
100 to 1000 nM | CCN(Cc1nn[nH]c1C(=O)O)c1ccc(Cl)c(Cl)c1 [Compound 185, 4-(((3,4-dichlorophenyl)(ethyl)amino)methyl)-1H-1,2,3-triazole-5-carboxylic acid]
